Measurements taken from patent US11226337B2, “Chemoproteomic profiling of protein electrophilic and oxidative post-translational modifications” (Zenagem, LLC, priority 2017, dated 2022).

Key:
[1] = biological target: T1, PSAP Proactivator polypeptide (P07602) (Homo sapiens, UniProt P07602); assay: SILAC RP-ABPP; type: cell-based; conditions: SILAC H/L, MDA-MB-231
T1 construct: In Situ Labelling of Cells with Hydrazine Probes for MS Experiments; endogenous in cells; host or cells: HEK293T and MDA-MB-231
T1 sequence (P07602 60-524): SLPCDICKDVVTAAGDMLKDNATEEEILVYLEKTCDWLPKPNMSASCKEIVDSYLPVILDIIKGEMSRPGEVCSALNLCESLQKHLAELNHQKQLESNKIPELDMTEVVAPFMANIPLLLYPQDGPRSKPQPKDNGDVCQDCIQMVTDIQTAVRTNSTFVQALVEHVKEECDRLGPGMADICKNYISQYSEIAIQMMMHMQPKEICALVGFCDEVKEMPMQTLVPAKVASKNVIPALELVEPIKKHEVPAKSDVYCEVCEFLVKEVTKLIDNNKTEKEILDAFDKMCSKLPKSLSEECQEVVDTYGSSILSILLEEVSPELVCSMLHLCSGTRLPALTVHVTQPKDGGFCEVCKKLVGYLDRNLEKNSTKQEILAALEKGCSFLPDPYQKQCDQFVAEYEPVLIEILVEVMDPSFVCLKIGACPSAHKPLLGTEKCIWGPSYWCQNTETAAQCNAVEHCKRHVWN

[2] = biological target: T2, MAN2B1 Lysosomal alphamannosidase (O00754) (Homo sapiens, UniProt O00754); assay: SILAC RP-ABPP; type: cell-based; conditions: SILAC H/L, MDA-MB-231
T2 construct: shared by both the endogenous and recombinant forms of these proteins; endogenous in cells; host or cells: HEK293T and MDA-MB-231
T2 sequence (O00754 50-1011): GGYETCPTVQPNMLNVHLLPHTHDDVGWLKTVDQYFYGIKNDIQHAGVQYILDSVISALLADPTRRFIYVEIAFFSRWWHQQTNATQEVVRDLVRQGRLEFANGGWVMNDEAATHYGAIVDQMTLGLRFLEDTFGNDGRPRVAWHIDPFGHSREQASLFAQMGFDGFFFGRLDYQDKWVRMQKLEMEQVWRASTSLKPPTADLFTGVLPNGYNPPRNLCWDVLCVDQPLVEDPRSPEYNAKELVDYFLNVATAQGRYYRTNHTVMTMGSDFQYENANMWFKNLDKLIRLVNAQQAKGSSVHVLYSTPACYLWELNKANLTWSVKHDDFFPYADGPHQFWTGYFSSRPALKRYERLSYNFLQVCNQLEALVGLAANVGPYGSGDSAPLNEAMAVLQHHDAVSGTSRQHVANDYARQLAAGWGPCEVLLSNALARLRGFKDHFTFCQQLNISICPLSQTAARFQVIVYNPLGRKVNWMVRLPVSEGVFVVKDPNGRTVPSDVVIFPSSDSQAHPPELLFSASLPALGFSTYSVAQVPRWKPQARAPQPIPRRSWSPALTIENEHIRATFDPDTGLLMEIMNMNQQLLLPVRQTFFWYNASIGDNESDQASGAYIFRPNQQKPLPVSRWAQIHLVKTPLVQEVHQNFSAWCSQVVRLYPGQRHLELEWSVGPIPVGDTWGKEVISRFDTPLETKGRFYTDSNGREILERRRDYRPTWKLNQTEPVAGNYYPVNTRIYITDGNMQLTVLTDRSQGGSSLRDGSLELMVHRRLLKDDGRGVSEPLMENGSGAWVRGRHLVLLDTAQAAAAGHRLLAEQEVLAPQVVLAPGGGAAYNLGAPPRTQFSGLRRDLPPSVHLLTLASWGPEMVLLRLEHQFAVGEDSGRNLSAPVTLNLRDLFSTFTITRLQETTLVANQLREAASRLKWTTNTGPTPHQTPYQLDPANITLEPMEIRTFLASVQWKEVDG

Row | enrichment ratioavg ([1]; probe 2 1 mM 0.5 h vs probe 4) | competition ratioavg ([1]; probe 2 vs probe 2+10x probe 4) | enrichment ratioavg ([2]; probe 2 1 mM 0.5 h vs probe 4) | competition ratioavg ([2]; probe 2 vs probe 2+10x probe 4) | Structure (SMILES) | enrichment ratioavg ([1]; probe 1 3 mM 0.5 h vs probe 3) | competition ratioavg ([1]; probe 1 vs probe 1+10x probe 3) | enrichment ratioavg ([2]; probe 1 3 mM 0.5 h vs probe 3) | competition ratioavg ([2]; probe 1 vs probe 1+10x probe 3)
1 | – | – | – | – | C#CCNN.Cl [probe 1, prop-2-yn-1-ylhydrazine hydrochloride] | 12 | 3 | 20 | 8
2 | 5 | 5 | 20 | 4 | C#CCCNC(=O)c1ccc(NN)cc1.Cl [probe 2, N-(but-3-yn-1-yl)-4-hydrazinylbenzamide hydrochloride] | – | – | – | –
